pIC50: −log10 of the molar value. Like-named read-outs stand apart in the source and are kept apart here.
Legend:
[1] = test system: NSCLC A549 cell line; assay: MTT assay against human tumor NSCLC A549 cell line; assay type: cell-based
[2] = test system: colon LOVO cell line; assay: MTT assay against colon LOVO cell line; assay type: cell-based, human

Row | SMILES | pIC50 ([1]; Homo sapiens) | pIC50 ([2]; Homo sapiens) | pIC50 [1] | pIC50 [2]
1 | C=C1CN(CCOc2cc3nccc(Oc4ccc5c(C(=O)NC)cccc5c4)c3cc2OC)CC12CC2 [Example 25, 6-(6-Methoxy-7-(2-(7-methylene-5-azaspiro[2.4]heptan-5-yl)ethoxy)quinolin-4-yloxy)-N-methyl-1-naphthamide] | 6.52 | 6.05 |  | 
2 | CNC(=O)c1cccc2cc(Oc3ccnc4cc(OCCCN5CC(OC)C6(CC6)C5)c(OC)cc34)ccc12 (stereo not drawn) [Example 29, 6-(6-Methoxy-7-(3-(7-methoxy-5-azaspiro[2.4]heptan-5-yl)propoxy)quinolin-4-yloxy)-N-methyl-1-naphthamide] | 6.52 | 6.05 |  | 
3 | CNC(=O)c1cccc2cc(Oc3ccnc4cc(OCCN5CC(=O)C6(CC6)C5)c(OC)cc34)ccc12 [Example 22, 6-(6-Methoxy-7-(2-(7-oxo-5-azaspiro[2.4]heptan-5-yl)ethoxy)quinolin-4-yloxy)-N-methyl-1-naphthamide] | 6.15 | 5.96 |  | 
4 | CNC(=O)c1c(C)oc2cc(Oc3ccnc4cc(OCCN5CC(O)C6(CC6)C5)c(OC)cc34)ccc12 (stereo not drawn) [Example 13, 6-(7-(2-(7-Hydroxy-5-azaspiro[2.4]heptan-5-yl)ethoxy)-6-methoxyquinolin-4-yloxy)-N,2-dimethylbenzofuran-3-carboxamide] | 6.70 | 6.05 |  | 
5 | CNC(=O)c1c(C)oc2cc(Oc3ccnc4cc(OCCCN5CC(OC)C6(CC6)C5)c(OC)cc34)ccc12 (stereo not drawn) [Example 19, 6-(6-Methoxy-7-(3-(7-methoxy-5-azaspiro[2.4]heptan-5-yl)propoxy)quinolin-4-yloxy)-N,2-dimethyl-benzofuran-3-carboxamide] | 6.70 | 6.15 |  | 
6 | CNC(=O)c1c(C)oc2cc(Oc3ccnc4cc(OCCCN5CC6(CC6)C6(C5)OCCO6)c(OC)cc34)ccc12 [Example 16, 6-(6-Methoxy-7-[3-(5,8-Dioxa-10-azadispiro[2.0.4.3]undecane)propoxy]quinolin-4-yloxy)-N,2-dimethylbenzofuran-3-carboxamide] |  |  | 6.70 | 6.15
7 | COc1cc2c(Oc3ccc4[nH]c(C)cc4c3F)ccnc2cc1OCCCN1CC(OC)C2(CC2)C1 (stereo not drawn) [Example 9, 4-(4-Fluoro-2-methyl-1H-indol-5-yloxy)-6-methoxy-7-(3-(7-methoxy-5-azaspiro[2.4]heptan-5-yl)propoxy)quinoline] | 7.00 | 6.40 |  | 
8 | CNC(=O)c1c(C)oc2cc(Oc3ccnc4cc(OCCN5CC6(CC6)C6(C5)OCCO6)c(OC)cc34)ccc12 [Example 11, 6-(6-Methoxy-7-[2-(5,8-Dioxa-10-azadispiro[2.0.4.3]undecane)ethoxy]quinolin-4-yloxy)-N,2-dimethylbenzofuran-3-carboxamide] |  |  | 6.70 | 6.15
9 | C=C1CN(CCCOc2cc3nccc(Oc4ccc5[nH]c(C)cc5c4F)c3cc2OC)CC12CC2 [Example 10, 4-(4-Fluoro-2-methyl-1H-indol-5-yloxy)-6-methoxy-7-(3-(7-methylene-5-azaspiro[2.4]heptan-5-yl)propoxy)quinoline] | 7.00 | 6.40 |  | 
10 | CNC(=O)c1cccc2cc(Oc3ccnc4cc(OCCCN5CC(O)C6(CC6)C5)c(OC)cc34)ccc12 (stereo not drawn) [Example 28, 6-(7-(3-(7-Hydroxy-5-azaspiro[2.4]heptan-5-yl)propoxy)-6-methoxyquinolin-4-yloxy)-N-methyl-1-naphthamide] | 6.00 | 5.82 |  | 
11 | COc1cc2c(Oc3ccc4[nH]c(C)cc4c3F)ccnc2cc1OCCN1CC(O)C2(CC2)C1 (stereo not drawn) [Example 3, 5-(2-(4-(4-fluoro-2-methyl-1H-indol-5-yloxy)-6-methoxyquinolin-7-yloxy)ethyl)-5-azaspiro[2.4]-heptan-7-ol] | 7.00 | 6.40 |  | 
12 | C=C1CN(CCCOc2cc3nccc(Oc4ccc5c(C(=O)NC)c(C)oc5c4)c3cc2OC)CC12CC2 [Example 20, 6-(6-Methoxy-7-(3-(7-methylene-5-azaspiro[2.4]heptan-5-yl)propoxy)quinolin-4-yloxy)-N,2-dimethylbenzofuran-3-carboxamide] | 6.52 | 6.05 |  | 
13 | COc1cc2c(Oc3ccc4[nH]c(C)cc4c3F)ccnc2cc1OCCCN1CC2(CC2)C2(C1)OCCO2 [Example 6, 4-(4-fluoro-2-methyl-1H-indol-5-yloxy)-6-methoxy-7-[3-(5,8-Dioxa-10-azadispiro[2.0.4.3]-undecane)propoxy]quinoline] |  |  | 7.10 | 6.40
14 | CNC(=O)c1cccc2cc(Oc3ccnc4cc(OCCN5CC(O)C6(CC6)C5)c(OC)cc34)ccc12 (stereo not drawn) [Example 23, 6-(7-(2-(7-Hydroxy-5-azaspiro[2.4]heptan-5-yl)ethoxy)-6-methoxyquinolin-4-yloxy)-N-methyl-1-naphthamide] | 6.10 | 5.92 |  | 
15 | COc1cc2c(Oc3ccc4[nH]c(C)cc4c3F)ccnc2cc1OCCN1CC2(CC2)C2(C1)OCCO2 [Example 1, 4-(4-Fluoro-2-methyl-1H-indol-5-yloxy)-6-methoxy-7-[2-(5,8-Dioxa-10-azadispiro[2.0.4.3]-undecane)ethoxy]quinoline] |  |  | 7.05 | 6.70
16 | CNC(=O)c1cccc2cc(Oc3ccnc4cc(OCCN5CC(OC)C6(CC6)C5)c(OC)cc34)ccc12 (stereo not drawn) [Example 24, 6-(6-Methoxy-7-(2-(7-methoxy-5-azaspiro[2.4]heptan-5-yl)ethoxy)quinolin-4-yloxy)-N-methyl-1-naphthamide] | 6.00 | 5.82 |  | 
17 | CNC(=O)c1cccc2cc(Oc3ccnc4cc(OCCCN5CC(=O)C6(CC6)C5)c(OC)cc34)ccc12 [Example 27, 6-(6-Methoxy-7-(3-(7-oxo-5-azaspiro[2.4]heptan-5-yl)propoxy)quinolin-4-yloxy)-N-methyl-1-naphthamide] | 6.40 | 6.05 |  | 
18 | COc1cc2c(Oc3ccc4[nH]c(C)cc4c3F)ccnc2cc1OCCN1CC(OC)C2(CC2)C1 (stereo not drawn) [Example 4, 4-(4-Fluoro-2-methyl-1H-indol-5-yloxy)-6-methoxy-7-(2-(7-methoxy-5-azaspiro[2.4]heptan-5-yl)ethoxy)quinoline] | 7.10 | 6.40 |  | 
19 | COc1cc2c(Oc3ccc4[nH]c(C)cc4c3F)ccnc2cc1OCCCN1CC(O)C2(CC2)C1 (stereo not drawn) [Example 8, 5-(3-(4-(4-Fluoro-2-methyl-1H-indol-5-yloxy)-6-methoxyquinolin-7-yloxy)propyl)-5-azaspiro[2.4]-heptan-7-ol] | 7.00 | 6.52 |  | 
20 | CNC(=O)c1cccc2cc(Oc3ccnc4cc(OCCCN5CC6(CC6)C6(C5)OCCO6)c(OC)cc34)ccc12 [Example 26, 6-(6-Methoxy-7-[3-(5,8-Dioxa-10-azadispiro[2.0.4.3]undecane)propoxy]quinolin-4-yloxy)-N-methyl-1-naphthamide] |  |  | 6.10 | 5.96
21 | CNC(=O)c1c(C)oc2cc(Oc3ccnc4cc(OCCN5CC(=O)C6(CC6)C5)c(OC)cc34)ccc12 [Example 12, 6-(6-Methoxy-7-(2-(7-oxo-5-azaspiro[2.4]heptan-5-yl)ethoxy)quinolin-4-yloxy)-N,2-dimethylbenzofuran-3-carboxamide] | 6.52 | 6.05 |  | 
22 | C=C1CN(CCCOc2cc3nccc(Oc4ccc5c(C(=O)NC)cccc5c4)c3cc2OC)CC12CC2 [Example 30, 6-(6-Methoxy-7-(3-(7-methylene-5-azaspiro[2.4]heptan-5-yl)propoxy)quinolin-4-yloxy)-N-methyl-1-naphthamide] | 6.05 | 6.00 |  | 
23 | C=C1CN(CCOc2cc3nccc(Oc4ccc5[nH]c(C)cc5c4F)c3cc2OC)CC12CC2 [Example 5, 4-(4-Fluoro-2-methyl-1H-indol-5-yloxy)-6-methoxy-7-(2-(7-methylene-5-azaspiro[2.4]heptan-5-yl)ethoxy)quinoline] | 7.00 | 6.40 |  | 
24 | CNC(=O)c1c(C)oc2cc(Oc3ccnc4cc(OCCN5CC(OC)C6(CC6)C5)c(OC)cc34)ccc12 (stereo not drawn) [Example 14, 6-(6-Methoxy-7-(2-(7-methoxy-5-azaspiro[2.4]heptan-5-yl)ethoxy)quinolin-4-yloxy)-N,2-dimethylbenzofuran-3-carboxamide] | 6.70 | 6.15 |  | 
25 | COc1cc2c(Oc3ccc4[nH]c(C)cc4c3F)ccnc2cc1OCCN1CC(=O)C2(CC2)C1 [Example 2, 5-(2-(4-(4-Fluoro-2-methyl-1H-indol-5-yloxy)-6-methoxyquinolin-7-yloxy)ethyl)-5-azaspiro[2.4]-heptan-7-one] | 7.00 | 6.52 |  | 
26 | C=C1CN(CCOc2cc3nccc(Oc4ccc5c(C(=O)NC)c(C)oc5c4)c3cc2OC)CC12CC2 [Example 15, 6-(6-Methoxy-7-(2-(7-methylene-5-azaspiro[2.4]heptan-5-yl)ethoxy)quinolin-4-yloxy)-N,2-dimethyl-benzofuran-3-carboxamide] | 6.52 | 6.05 |  | 
27 | COc1cc2c(Oc3ccc4[nH]c(C)cc4c3F)ccnc2cc1OCCCN1CC(=O)C2(CC2)C1 [Example 7, 5-(3-(4-(4-Fluoro-2-methyl-1H-indol-5-yloxy)-6-methoxyquinolin-7-yloxy)propyl)-5-azaspiro[2.4]-heptan-7-one] | 7.05 | 6.70 |  | 
28 | CNC(=O)c1c(C)oc2cc(Oc3ccnc4cc(OCCCN5CC(O)C6(CC6)C5)c(OC)cc34)ccc12 (stereo not drawn) [Example 18, 6-(7-(3-(7-Hydroxy-5-azaspiro[2.4]heptan-5-yl)propoxy)-6-methoxyquinolin-4-yloxy)-N,2-dimethyl-benzofuran-3-carboxamide] | 6.30 | 6.10 |  | 
29 | CNC(=O)c1c(C)oc2cc(Oc3ccnc4cc(OCCCN5CC(=O)C6(CC6)C5)c(OC)cc34)ccc12 [Example 17, 6-(6-Methoxy-7-(3-(7-oxo-5-azaspiro[2.4]heptan-5-yl)propoxy)quinolin-4-yloxy)-N,2-benzofuran-3-carboxamide] |  |  | 6.52 | 6.05
30 | CNC(=O)c1cccc2cc(Oc3ccnc4cc(OCCN5CC6(CC6)C6(C5)OCCO6)c(OC)cc34)ccc12 [Example 21, 6-(6-Methoxy-7-[2-(5,8-Dioxa-10-azadispiro[2.0.4.3]undecane)ethoxy]quinolin-4-yloxy)-N-methyl-1-naphthamide] |  |  | 6.10 | 5.96

Reference: patent US8211911B2, “Compounds as kinase inhibitors” (priority 2008, dated 2012)
